Measurements reported in patent US11685738B2, “Fluorinated tetrahydronaphthyridinyl nonanoic acid derivatives and uses thereof” (OcuTerra Therapeutics, Inc., priority 2015, dated 2023).

Assays:
[1] = molecular target: αvβ3 (Homo sapiens (Human), UniProt P05106+P06756); assay: αVβ3–vitronectin integrin binding assay (integrin-coupled beads, flow cytometry); conditions: ligand vitronectin
From the text: (§1) All αV Integrins are known to bind to proteins with a RGD motif. Two RGD ligands were used in this study: Vitronectin (VN) as a ligand for αVβ3 and αVβ5 (Wayner et al., J. Cell Biol., 113 (4), 919-929, 1991), and LAP TGF-β1 (LAP1) as a ligand for αVβ6 and αVβ8 (Rognoni et al., Nat. Med., 20(4): 350-359, 2014). CWHM12 was used as a positive control for αVβ6 and αVβ8 (Henderson et al., Nat. Med. 19(12), 10.1038/nm.3282 2013), and Cilengitide as a positive control for αVβ3 and αVβ5 (Kumar et al., J. Pharmacol. Exp. Ther., 283, 843-853, 1997).
(§2) The integrin coupled Dyna beads were allowed to interact with respective ligands. The integrin-ligand complex was detected with either Primary/Secondary Antibody conjugated with Fluorescein Isothiocyanate (FITC). For αVβ3 and αVβ5, Vitronectin was used as a ligand and a primary antibody conjugated with FITC (Anti-VN-FITC Ab) was used to detect the interaction. For αVβ6 and αVβ8, LAP-TGF (31 was used as ligand and a primary antibody against LAP1 (Anti-LAP1 Ab) and a secondary antibody conjugated with FITC were used to detect the αVβ6/αVβ8-LAP-TGF (31 complex. Fluorescence was measured by Flow Cytometry analysis.
(§3) 5 mg of Dyna beads were weighed in a low protein binding microfuge (Eppendorf) tube (1.5 mL volume). The beads were re-suspended in 1 mL of Sodium Phosphate Buffer and vortexed at high speed for 30 seconds. The tube was then placed in a tube roller and tilt rotated for 10 min. After tilt rotation, the tube was placed on the Magna Spin and the beads were allowed to settle. The supernatant was discarded and the beads were washed three times. The beads were then re-suspended in 100 μL of Sodium Phosphate Buffer and 20 μL of washed beads were distributed into 5 low protein binding Eppendorf tubes (1 mg of beads in each tube). The beads were used for coupling integrins.
(§4) 20 μL of (1 mg) of beads were mixed with 20 μL of integrins (20 μg) and 20 μL of 3 M Ammonium Sulfate solution (final concentration of ammonium sulfate was 1M) to achieve a Bead: Protein ratio of 5 mg:100 μg. The solution was mixed gently and placed in a tube roller and incubated at 37° C. for 16 hours.
αVβ3/αVβ5 coupled beads were treated with the ligand at room temperature for 3 hours. The complex (Integrin+Ligand) was then treated with Anti-Vitronectin Ab conjugated with FITC overnight at 4° C. The complex was analyzed by either plate reader or Flow Cytometer.
10 μL of αVβ3/αVβ5 coupled beads were taken for the experiment. The concentration of integrins was 10 nM. 10 μL of vitronectin was taken. The concentration was 10 nM. Reaction between integrin coupled beads and vitronectin was considered as the full reaction, and reaction without vitronectin or a compound of the disclosure was considered as the blank reaction. The samples were incubated in low protein binding tubes at room temperature for 3 hours. The tubes were briefly spun and placed in a Magna spin. The supernatant was then removed. The beads were washed with assay buffer twice to remove excess vitronectin and then re-suspended in 150 μL of assay buffer containing 1:500 Anti-vitronectin Ab conjugated with FITC. The tubes were placed in a tube roller and incubated at 4° C. overnight. […] The beads were then re-suspended in […] PBS and analyzed by a Flow Cytometer (BD FACSCalibur, Software—BD Cell Quest Pro Version 6).
The samples were acquired using a BD FACSCalibur system and analyzed with BD Cell quest pro Version 6. […] Percentage of binding was calculated with respect to full reaction. […]

[2] = molecular target: αvβ8 (Homo sapiens (Human), UniProt P06756+P26012); assay: αVβ8–LAP-TGF β1 integrin binding assay (integrin-coupled beads, flow cytometry); conditions: ligand LAP TGF-β1
Sequence of αvβ8 (P06756 31-992): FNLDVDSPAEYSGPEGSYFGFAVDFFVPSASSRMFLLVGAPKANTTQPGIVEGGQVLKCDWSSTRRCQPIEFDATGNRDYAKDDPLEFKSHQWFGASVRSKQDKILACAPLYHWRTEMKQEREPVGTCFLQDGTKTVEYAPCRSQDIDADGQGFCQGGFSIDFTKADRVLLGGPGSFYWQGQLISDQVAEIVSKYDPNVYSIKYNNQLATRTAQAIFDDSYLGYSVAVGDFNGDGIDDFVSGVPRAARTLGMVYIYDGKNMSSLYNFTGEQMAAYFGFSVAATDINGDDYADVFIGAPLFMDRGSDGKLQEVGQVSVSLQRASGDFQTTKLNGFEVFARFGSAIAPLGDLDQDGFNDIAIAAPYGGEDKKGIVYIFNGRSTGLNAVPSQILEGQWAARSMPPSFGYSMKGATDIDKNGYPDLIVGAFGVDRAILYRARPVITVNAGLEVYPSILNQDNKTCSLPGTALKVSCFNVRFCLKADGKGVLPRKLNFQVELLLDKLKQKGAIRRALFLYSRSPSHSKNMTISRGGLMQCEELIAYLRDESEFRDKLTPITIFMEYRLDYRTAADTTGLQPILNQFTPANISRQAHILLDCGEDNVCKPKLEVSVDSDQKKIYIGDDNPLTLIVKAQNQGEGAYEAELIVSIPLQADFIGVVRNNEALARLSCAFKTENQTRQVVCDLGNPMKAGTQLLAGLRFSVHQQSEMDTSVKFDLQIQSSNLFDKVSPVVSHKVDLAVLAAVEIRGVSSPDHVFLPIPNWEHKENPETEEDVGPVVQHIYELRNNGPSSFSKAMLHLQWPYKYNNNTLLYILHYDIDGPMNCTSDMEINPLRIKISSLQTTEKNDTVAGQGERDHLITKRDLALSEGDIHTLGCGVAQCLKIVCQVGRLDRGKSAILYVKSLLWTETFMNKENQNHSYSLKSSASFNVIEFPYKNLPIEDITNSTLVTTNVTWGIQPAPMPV
Sequence of αvβ8 (P26012 43-684): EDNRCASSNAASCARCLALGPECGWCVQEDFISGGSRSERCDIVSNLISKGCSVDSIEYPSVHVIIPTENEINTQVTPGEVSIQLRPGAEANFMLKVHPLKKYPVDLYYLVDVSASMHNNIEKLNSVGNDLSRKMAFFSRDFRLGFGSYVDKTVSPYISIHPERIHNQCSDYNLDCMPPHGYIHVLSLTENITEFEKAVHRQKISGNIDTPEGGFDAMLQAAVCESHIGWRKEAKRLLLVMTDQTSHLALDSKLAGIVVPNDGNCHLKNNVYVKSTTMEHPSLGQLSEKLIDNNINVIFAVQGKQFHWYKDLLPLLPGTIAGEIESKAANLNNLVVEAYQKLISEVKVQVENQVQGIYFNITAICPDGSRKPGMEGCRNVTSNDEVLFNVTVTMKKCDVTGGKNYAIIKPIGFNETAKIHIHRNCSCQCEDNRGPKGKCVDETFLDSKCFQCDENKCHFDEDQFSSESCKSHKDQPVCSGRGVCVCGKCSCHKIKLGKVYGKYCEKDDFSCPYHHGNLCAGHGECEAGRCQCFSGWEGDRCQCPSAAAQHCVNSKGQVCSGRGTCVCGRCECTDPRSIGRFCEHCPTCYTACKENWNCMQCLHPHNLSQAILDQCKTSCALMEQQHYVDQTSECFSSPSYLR
From the text: as §1, §2, §3, §4
(§5) αVβ6/αVβ8 coupled beads were treated with the ligand LAP TGF-β1 (LAP1) at room temperature for 3 hours. The complex (Integrin+Ligand) was then treated with primary Ab (Anti-LAP1 Ab) overnight at 4° C. The whole complex (Integrin+Ligand+Primary Ab) was treated with Secondary Ab conjugated with FITC and incubated for 2 hours. The complex was analyzed by either plate reader or Flow Cytometer.
(§6) 10 μL of αVβ6/αVβ8 coupled beads were taken for the experiment. The concentration of integrins was 10 nM. 10 μL of LAP1 was taken (10 nM for aVβ6 and 20 nM for aVβ8). Reaction between integrin coupled beads and LAP1 was considered as the full reaction, and reaction without LAP1 or a compound of the disclosure was considered as the blank reaction. The samples were incubated in low protein binding tubes at room temperature for 3 hours. The tubes were briefly spun and placed in a Magna spin. The supernatant was removed. The beads were washed with assay buffer twice to remove excess LAP1 and then re-suspended in […] assay buffer containing 1:200 anti-LAP1 Ab (primary Ab). The tubes were placed in a tube roller and incubated at 4° C. overnight. After a brief spin, the tubes were then placed in a Magna spin and the supernatant was removed. The beads were washed with assay buffer twice to remove excess primary Ab and then re-suspended in 150 μL of assay buffer containing 1:500 secondary Ab conjugated with FITC. The tubes were incubated at room temperature for 2 hours in a tube roller. After a brief spin, the tubes were placed in a Magna spin and the supernatant was removed. The beads were washed with assay buffer twice followed by PBS. The beads were then re-suspended in 300 μL of PBS and analyzed by a Flow Cytometer (BD FACSCalibur, Software—BDcell Quest Pro Version 6). […]

[3] = molecular target: αvβ6 (Homo sapiens (Human), UniProt P06756+P18564); assay: αVβ6–LAP-TGF β1 integrin binding assay (integrin-coupled beads, flow cytometry); conditions: for IC50: ligand LAP TGF-β1; for αvβ8/αvβ6: ratio of αvβ8 IC50 to αvβ6 IC50
Sequence of αvβ6 (P06756 31-992): as the sequence (P06756 31-992) above
Sequence of αvβ6 (P18564 22-707): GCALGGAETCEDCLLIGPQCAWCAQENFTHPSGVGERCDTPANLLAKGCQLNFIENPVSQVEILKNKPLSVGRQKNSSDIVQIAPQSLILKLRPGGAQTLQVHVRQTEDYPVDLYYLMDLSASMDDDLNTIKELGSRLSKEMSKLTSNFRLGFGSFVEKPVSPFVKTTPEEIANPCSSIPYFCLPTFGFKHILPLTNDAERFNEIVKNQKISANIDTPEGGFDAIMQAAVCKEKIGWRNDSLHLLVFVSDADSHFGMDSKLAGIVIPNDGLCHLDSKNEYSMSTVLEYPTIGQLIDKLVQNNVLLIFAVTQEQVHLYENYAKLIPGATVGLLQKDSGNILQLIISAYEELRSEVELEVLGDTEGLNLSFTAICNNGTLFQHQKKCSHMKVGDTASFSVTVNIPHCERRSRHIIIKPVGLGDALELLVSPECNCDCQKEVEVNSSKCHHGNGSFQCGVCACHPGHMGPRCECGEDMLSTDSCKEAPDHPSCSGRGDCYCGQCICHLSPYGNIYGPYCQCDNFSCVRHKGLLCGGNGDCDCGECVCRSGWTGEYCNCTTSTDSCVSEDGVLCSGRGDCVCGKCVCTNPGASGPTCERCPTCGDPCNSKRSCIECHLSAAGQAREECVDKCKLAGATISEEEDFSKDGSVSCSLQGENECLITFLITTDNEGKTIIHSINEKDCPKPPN
From the text: as §1, §2, §3, §4, §5, §6

Sequence of αvβ3 (P06756 31-992): as the sequence (P06756 31-992) above
Sequence of αvβ3 (P05106 27-718): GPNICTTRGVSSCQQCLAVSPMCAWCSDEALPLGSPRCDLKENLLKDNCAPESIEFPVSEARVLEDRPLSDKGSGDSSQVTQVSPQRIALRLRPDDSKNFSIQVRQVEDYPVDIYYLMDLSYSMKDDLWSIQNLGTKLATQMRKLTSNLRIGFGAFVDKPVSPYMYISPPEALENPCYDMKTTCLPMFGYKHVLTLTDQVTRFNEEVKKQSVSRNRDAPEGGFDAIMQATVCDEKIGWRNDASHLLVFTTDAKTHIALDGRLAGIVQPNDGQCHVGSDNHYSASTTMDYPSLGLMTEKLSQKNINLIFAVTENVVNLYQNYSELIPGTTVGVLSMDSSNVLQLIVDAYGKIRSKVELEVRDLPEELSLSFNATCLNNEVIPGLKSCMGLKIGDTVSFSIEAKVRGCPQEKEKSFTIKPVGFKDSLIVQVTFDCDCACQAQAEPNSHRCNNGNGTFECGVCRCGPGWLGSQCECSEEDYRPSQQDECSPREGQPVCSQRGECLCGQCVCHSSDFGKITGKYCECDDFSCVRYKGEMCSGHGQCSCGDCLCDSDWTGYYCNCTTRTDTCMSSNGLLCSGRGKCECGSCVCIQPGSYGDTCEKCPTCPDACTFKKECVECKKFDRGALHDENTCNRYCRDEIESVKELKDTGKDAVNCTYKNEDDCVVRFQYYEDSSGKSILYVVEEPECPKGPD

IC50 [1]	IC50 [2]	IC50 [3]	αvβ8/αvβ6 [3]	SMILES
65.7 nM	63.9 nM	9.97 nM	6.41	O=C(O)CC(CCCCCCc1ccc2c(n1)NCCC2)c1cnc2cc(F)ccc2c1 (stereo not shown) [Compound A5, 3-(7-fluoroquinolin-3-yl)-9-(5,6,7,8-tetrahydro-1,8-naphthyridin-2-yl)nonanoic acid]
0.57 nM	79.3 nM	18.2 nM	4.37	O=C(O)CC(CCCCCCc1ccc2c(n1)NCCC2)c1ccc(OC(F)F)nc1 (stereo not shown) [Compound A3, 3-(6-(difluoromethoxy)pyridin-3-yl)-9-(5,6,7,8-tetrahydro-1,8-naphthyridin-2-yl)nonanoic acid]
9 nM	78.1 nM	11.6 nM	6.71	O=C(O)CC(CCCCCCc1ccc2c(n1)NCCC2)c1cnc(C(F)(F)F)nc1 (stereo not shown) [Compound A2, 9-(5,6,7,8-tetrahydro-1,8-naphthyridin-2-yl)-3-(2-(trifluoromethyl)pyrimidin-5-yl)nonanoic acid]
4.3 nM	151 nM	14.8 nM	10.18	O=C(O)CC(CCCCCCc1ccc2c(n1)NCCC2)c1ccc(Cl)c(C(F)(F)F)c1 (stereo not shown) [Compound A23, 3-(4-chloro-3-(trifluoromethyl)phenyl)-9-(5,6,7,8-tetrahydro-1,8-naphthyridin-2-yl)nonanoic acid]
